Laboratory results from patent US8377905B2, “Stable crystal of 1-(2′-cyano-2′-deoxy-β-D-arabinofuranosyl)cytosine monohydrochloride” (Delta-Fly Pharma, Inc., priority 2009, dated 2013).

How the values were obtained:
[1] = system: human or mouse tumor cells; conditions: Patent Document 1, Non-Patent Documents 1 and 2; cited from earlier work
[2] = Patent Document 1, Non-Patent Documents 1 and 2; cited from earlier work
[3] = Stability test: content of total analogues by HPLC after storage; format: physicochemical; conditions: for Total analogues (%), amount of increase from the initial value: 30 days vs initial; for Total analogues (%), 10 days: storage 10 days; for Total analogues (%), 18 days: storage 18 days; for Total analogues (%), 30 days: storage 30 days; for Increase in the total analogues: stability test under various conditions (humidification and exposure), 30 days
Description: (§1) The type I and type II crystal powders were respectively spread uniformly on a glass petri dish, and an aluminum foil (or a transparent resin film, for the purpose of storage under light exposure conditions) which was appropriately perforated as vent holes therein was used as a lid, to prepare test samples. These samples were respectively stored for 30 days under four kinds of conditions such as [60° C.], [40° C./relative humidity (RH) 75%], [25° C./relative humidity (RH) 60%, light exposure 2000 lx·hr], and [25° C./relative humidity (RH) 60%, light shading], and then the samples were tested using high performance liquid chromatography (HPLC) and powder X-ray diffraction (XRD).
For the HPLC analysis, 22.9 mg of the sample was dissolved in 10 mL of 0.01 mol/L hydrochloric acid, and then the content of analogues in the crystal was measured under the following conditions.
Column: Synergi Hydro-RP 80A Phenomenex (φ4.6 mm×25 cm, 4 μm); temperature 25° C.
Mobile phase: 2.05 g of potassium dihydrogen phosphate is dissolved in 3000 mL of water, and phosphoric acid is added to the solution to adjust the pH to 3.0. The mobile phase is prepared by adding 60 mL of methanol to 2940 mL of the solution liquid.
Flow rate: Approximately 1.0 mL/min
Detector: Ultraviolet absorptiometer (measurement wavelength 254 nm)
Standard Sample: • 1-(2′-cyano-2′-deoxy-β-D-arabinofuranosyl)cytosine monohydrochloride
The term “total analogues” refers to the substances detected other than 1-(2′-cyano-2′-deoxy-β-D-arabinofuranosyl)cytosine monohydrochloride), and the term “total analogues (%)” refers to the content ratio of total analogues with respect to the standard sample.

[4] = Stability test: change of crystal form by powder X-ray diffraction after storage; format: physicochemical; conditions: 30 days
From the text: as §1, with “The powder X-ray diffraction data were obtained by irradiating the crystal with CuKα ray (1.541 Å) using an X-ray diffraction apparatus (trade name: PW3050, manufactured by Koninklijke Philips Electronics N.V.), and detecting the angles using a vertical goniometer. The type” for “The type”, “diffraction (XRD). For powder X-ray diffraction (XRD), the analysis was carried out as described above.” for “diffraction (XRD).”

[5] = Heating of the crystal at 80° C. for 2 hours, crystal form by melting point and powder X-ray diffraction; format: physicochemical; conditions: heated at 80° C. for 2 hours
[6] = 25° C./60% RH/2000 lx, listed as I, monohydrochloride
[7] = 25° C./60% RH/Light shading, listed as I, monohydrochloride
[8] = 40° C./75% RH, listed as I, monohydrochloride
[9] = 60° C., listed as I, monohydrochloride
[10] = 25° C./60% RH/2000 lx, listed as II, monohydrochloride
[11] = 25° C./60% RH/Light shading, listed as II, monohydrochloride
[12] = 40° C./75% RH, listed as II, monohydrochloride
[13] = 60° C., listed as II, monohydrochloride

Cl.N#CC1C(O)[C@@H](CO)O[C@H]1n1ccc(N)nc1=O (stereo partly drawn) [compound (1), 1-(2′-cyano-2′-deoxy-β-D-arabinofuranosyl)cytosine monohydrochloride]
In vitro suppressive effect for proliferation of tumor cells [1]: suppressive effect for proliferation | Anti-tumor activity in vivo [2]: excellent anti-tumor activity

Cl.N#C[C@H]1[C@H](O)[C@@H](CO)O[C@H]1n1ccc(N)nc1=O [type I crystal, 1-(2′-cyano-2′-deoxy-β-D-arabinofuranosyl)cytosine monohydrochloride]
Total analogues (%), amount of increase from the initial value [3, 6]: 0.06% | Total analogues (%), initial [3, 6]: 0.07% | Total analogues (%), 10 days [3, 6]: 0.09% | Total analogues (%), 18 days [3, 6]: 0.09% | Total analogues (%), 30 days [3, 6]: 0.13% | Total analogues (%), amount of increase from the initial value [3, 7]: 0.00% | Total analogues (%), initial [3, 7]: 0.07% | Total analogues (%), 10 days [3, 7]: 0.07% | Total analogues (%), 18 days [3, 7]: 0.06% | Total analogues (%), 30 days [3, 7]: 0.07% | Total analogues (%), amount of increase from the initial value [3, 8]: −0.02% | Total analogues (%), initial [3, 8]: 0.07% | Total analogues (%), 10 days [3, 8]: 0.07% | Total analogues (%), 18 days [3, 8]: 0.06% | Total analogues (%), 30 days [3, 8]: 0.05% | Total analogues (%), amount of increase from the initial value [3, 9]: 0.00% | Total analogues (%), initial [3, 9]: 0.07% | Total analogues (%), 10 days ([3]; 60° C.): 0.06% | Total analogues (%), 18 days ([3]; 60° C.): 0.07% | Total analogues (%), 30 days ([3]; 60° C.): 0.07% | Stability of the crystal form (overall conclusion) ([3]; conclusion from the stability test and crystal form conversions): superior stability as compared with the type II crystal or the type III crystal | Increase in the total analogues [3]: not recognized | Change of crystal form from the initial value ([4]; 25° C./60% RH/2000 lx): No change | Change of crystal form from the initial value ([4]; 25° C./60% RH/Light shading): No change | Change of crystal form from the initial value [4, 8]: No change | Change of crystal form from the initial value ([4]; 60° C.): No change

Cl.N#CC1C(O)[C@@H](CO)O[C@H]1n1ccc(N)nc1=O (stereo partly drawn) [type II crystal, 1-(2′-cyano-2′-deoxy-β-D-arabinofuranosyl)cytosine monohydrochloride]
Total analogues (%), amount of increase from the initial value [3, 10]: 0.32% | Total analogues (%), initial [3, 10]: 0.06% | Total analogues (%), 10 days [3, 10]: 0.15% | Total analogues (%), 18 days [3, 10]: 0.23% | Total analogues (%), 30 days [3, 10]: 0.38% | Total analogues (%), amount of increase from the initial value [3, 11]: 0.03% | Total analogues (%), initial [3, 11]: 0.06% | Total analogues (%), 10 days [3, 11]: 0.06% | Total analogues (%), 18 days [3, 11]: 0.07% | Total analogues (%), 30 days [3, 11]: 0.09% | Total analogues (%), amount of increase from the initial value [3, 12]: 0.10% | Total analogues (%), initial [3, 12]: 0.06% | Total analogues (%), 10 days [3, 12]: 0.06% | Total analogues (%), 18 days [3, 12]: 0.08% | Total analogues (%), 30 days [3, 12]: 0.16% | Total analogues (%), amount of increase from the initial value [3, 13]: 0.01% | Total analogues (%), initial [3, 13]: 0.06% | Total analogues (%), 30 days ([3]; 60° C.): 0.07% | Increase in the total analogues [3]: not recognized | Change of crystal form from the initial value ([4]; 25° C./60% RH/2000 lx): No change | Change of crystal form from the initial value [4, 12]: Changed (II → I) | Change of crystal form from the initial value ([4]; 40° C./75% RH, monohydrochloride): converted to the type I crystal

Cl.N#CC1C(O)[C@@H](CO)O[C@H]1n1ccc(N)nc1=O (stereo partly drawn) [type III crystal, 1-(2′-cyano-2′-deoxy-β-D-arabinofuranosyl)cytosine monohydrochloride]
Change of crystal form on heating [5]: converted to the type I crystal
